According to publication PMC7377239, “Cardiovascular Effects of Polychlorinated Biphenyls and Their Major Metabolites” (Environmental Health Perspectives, 2020):
Read-outs that look alike come from different tables or passages of the source.

How the values were obtained:
[1] = test system: iCell cardiomyocytes (human iPSC-derived cardiomyocytes); assay: High-content imaging of cytotoxicity and mitochondrial integrity in iPSC-CMs; assay type: cell-based; conditions: Homo sapiens, Cardiomyocyte, cardiomyocytes (cm)
In short: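 Human iPSC-derived cardiomyocytes were seeded on gelatin-coated 384-well plates at 5,000 cells per well and maintained for 12 d. Test chemicals were added as 10μL of 5× solutions to final concentrations of 0.01 to 100μM. Cells were stained with Hoechst 33342 and MitoTracker™ Orange, fixed in formaldehyde, and imaged by confocal high-content microscopy at 10× magnification.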

[2] = test system: HUVECs; assay: High-content imaging cytotoxicity in HUVECs, 24 h; assay type: cell-based, human; conditions: Homo sapiens, HUVEC, 24 h, HUVEC, 24 hr
In short: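 HUVECs (passages 1–5) were plated at 750 cells/well without fibronectin, grown to a monolayer (3–5 d) and exposed to compounds for 24 h at 37°C, 5% CO2. Hoechst 33342, MitoTracker Orange and calcein AM staining was imaged at 10×; readouts were normalized to 0.5% DMSO vehicle and fit to a four-parameter logistic model.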

In the case of `Clc1ccc(-c2ccccc2)cc1` [PCB 3, 4-chlorobiphenyl], the minimal effective concentration ([1]; 1.5 h, cam, 90 min, read-out: POD cm.cam.90min) was 24.9 µM, the minimal effective concentration ([1]; 1.5 h, mii, 90 min, read-out: POD cm.mii.90min) was 6.86 µM and the minimal effective concentration ([1]; 1.5 h, mito, 90 min, read-out: POD cm.mito.90min) was 21.2 µM. The minimal effective concentration ([1]; 1.5 h, tc, 90 min, read-out: POD cm.tc.90min) was 20 µM, the minimal effective concentration ([1]; 24 h, cam, 24 hrs, read-out: POD cm.cam.24hrs) was 7.4 µM and the minimal effective concentration ([1]; 24 h, mii, 24 hrs, read-out: POD cm.mii.24hrs) was 10.9 µM. The minimal effective concentration ([1]; 24 h, mito, 24 hrs, read-out: POD cm.mito.24hrs) was 6.67 µM, the minimal effective concentration ([1]; 24 h, tc, 24 hrs, read-out: POD cm.tc.24hrs) was 6.97 µM and the minimal effective concentration ([2]; cyto, read-out: POD huvec.cyto.24hr) was 100 µM. It also gave a minimal effective concentration ([2]; mito, read-out: POD huvec.mito.24hr) of 100 µM, a minimal effective concentration ([2]; mitoint, read-out: POD huvec.mitoint.24hr) of 100 µM and a minimal effective concentration ([2]; nma, read-out: POD huvec.nma.24hr) of 100 µM. For the same compound, the minimal effective concentration ([2]; tc, read-out: POD huvec.tc.24hr) was 100 µM.
